{"source": "patent US20100190187A1", "about": "“Screening Assays for Antagonists and Analyses of Cardiac Hypertrophy” (The Regents of the University of Michigan Office of …, priority 2006, published 2010)", "key": {"HL-1 cells [1]": {"test_system": "HL-1 cells", "assay": "HL-1 cell growth and proliferation", "format": "cell-based, murine", "details": "compared to HL-1 cells incubated with vehicle, FIG. 10", "protocol": "HL-1 cells are obtained from Dr. W. C. Claycomb, Louisiana State University Medical Center, New Orleans, La. HL-1 cells (passages 55-75) are maintained at 37° C. under a 5% C02/air atmosphere in Claycomb medium (JRL Bioscience) supplemented with 10% fetal bovine serum, 0.29 mg/mL L-glutamine, 100 units/mL penicillin, 100 μg/mL streptomycin (all Gibco), and 0.1 mM norepinephrine (Sigma). The medium can be replaced approximately every 24 hours. HL-1 cells were grown in T25 culture flasks which were precoated overnight with 2 μg/cm fibronectin/0.02% gelatin solution. […]\nHL-1 cells are grown in 10% FCS-supplemented medium or medium supplemented with 1% ITS and treated with either 0.1% EtOH (control vehicle), 1, 10 or 100 nM 1,25(OH) 2D3, 100 nM PMA or 1 mM PMA or 1 mM 24,25(OH) 2D3 or 25(OH)D3 for 2 or 4 days. At each time point the myocytes are removed from the dish using a Trypsin-EDTA solution (Sigma Chemical, St. Louis, Mo.) and counted using a Coulter Counter (Model ZF, Coulter Electronics, Hialeah, Fla.). Protein levels can be determined after 2 days using the Bradford protein assay (14). […] The HL-1 cells can then be examined on a flow cytometer (Coulter Elite, Coulter Electronics, Hialeah, Fla.) and cell cycle distribution can be determined by using MODFIT (v. 5.2)."}, "HL-1 cells [2]": {"test_system": "HL-1 cells", "assay": "Western blot of hypertrophy biomarkers in HL-1 cells", "format": "cell-based, murine", "details": "for dose dependence of expression of the VDR: FIG. 13(C), compared to control", "protocol": "Screening assays employing incubation of VDR containing cells with and without a test compound. Cell extracts can be prepared and screened for increases or decreases of cardiac hypertrophy biomarkers or increase in PKC activity, VDR expression, myotrophin expression, using antibody detection methods described herein. Equivalent protein quantities of test compound cell extracts and control cell extracts can be loaded onto continuous or discontinuous PAGE gels and electrophoresed from 15 min to 24 hours, depending on the size of the gel. Following electrophoresis, the proteins can be electrophoretically transferred to PVDF membranes and probed with antibodies specific for example to Protein Kinase C and downstream regulated products c-myc, VDR, ANP, calbindin 9 and 32 and myotrophin. Bound antibodies can be visualized using chemiluminescent detection, chromatic detection or any method of detection of labeled membrane bound antibodies otherwise known as Western blotting. […] In FIG. 13(A), Western blots reveal that when HL-1 cells are incubated in the presence of a control sample (left lane) and a test compound (right lane). In some embodiments, for example, Vitamin D3 analog or metabolite, can be the test compound, or Vitamin D3 can be a control to measure the activity of the test compound. As shown in FIG. 13(A), Vitamin D3 reduces the expression of ANP, c-myc and calbindin 9 as compared to cells not incubated in the presence if Vitamin D3. […] Vitamin D3 has a positive up-regulating effect upon the expression of the VDR in HL-1 cells.\nTreated and control samples of HL-1 cells are trypsinized and removed from flasks. Cell counts are performed under microscope with a Fisher hemacytometer. Samples are centrifuged at 3000 RPM for 2 minutes to obtain a pellet, which is then re-suspended in an SDS-leupeptin sample buffer (SB). This whole cell lysate can then be boiled for 15 minutes, separated into working aliquots, and stored at −20° C. for analysis. Standard Bradford Protein Determination is then performed on all samples. Samples are then electrophoresed as described in Example 4. Following electrophoresis, protein is transferred onto a PVDF (Millipore) membrane. After blocking the membrane for one hour with 5% milk in TBS containing 0.05% Tween 20 (Sigma), the blots are incubated with primary and secondary antibodies according to the dilutions listed below. The blot is washed three times in TBS/0.5% Tween 20 after each incubation, followed by one final wash in TBS. The membrane can then be treated with ECL developer (Amersham Biosciences) and exposed to Kodak Biomax XAR film. To confirm equal loading of protein into the wells each blot can be stripped and re-probed with HRP conjugated goat anti-mouse actin antibody (sc-1616HRP; Santa Cruz Biotechnology Co; 1:1000). The primary antibodies that can be used include rabbit anti-mouse VDR (sc-1008; Santa Cruz Bio; 1:200 dilution); rabbit anti-mouse ANP (AB 5490; Chemicon; 1:500 dilution), mouse monoclonal anti-myotrophin (V11220; BD Transduction Laboratory; 1:1000), rabbit anti-mouse c-myc (sc-764, Santa Cruz Bio; 1:100), and goat anti-mouse calbindin-9 (sc-18038, Santa Cruz Bio; 1:100). The secondary antibodies which can be used include HRP conjugated goat anti-rabbit (AP 132P, Chemicon; 1:1000) for VDR, ANP, and c-myc. HRP conjugated goat anti-mouse (A 2304, Sigma; 1:1000), and bovine anti-goat Ab (sc2350, Santa Cruz Bio; 1:250), for myotrophin and calbindin-9, respectively."}}, "data": [{"molecule": "C=C1CC[C@H](O)C/C1=C/C=C1\\CCC[C@]2(C)[C@@H]([C@H](C)CCCC(C)C)CC[C@@H]12", "note": "[Vitamin D3]", "values": [{"measurement": "inhibition of HL-1 growth / cellular proliferation", "setting": "HL-1 cells [1]", "result": "dose dependent inhibition of cellular proliferation"}, {"measurement": "inhibition of HL-1 growth / cellular proliferation", "setting": "HL-1 cells [1]; listed as Vit D", "result": "dose dependent inhibition of HL-1 growth"}, {"measurement": "levels of intracellular ANP", "setting": "HL-1 cells [2]; FIG. 13(A)", "result": "significantly reduced levels"}, {"measurement": "levels of intracellular Calbindin 9", "setting": "HL-1 cells [2]; FIG. 13(A)", "result": "significantly reduced levels"}, {"measurement": "levels of intracellular c-myc", "setting": "HL-1 cells [2]; FIG. 13(A)", "result": "significantly reduced levels"}, {"measurement": "expression of the VDR", "setting": "HL-1 cells [2]; FIG. 13(B), 1 and 24 hours post exposure", "result": "up-regulated"}, {"measurement": "dose dependence of expression of the VDR", "setting": "HL-1 cells [2]", "result": "dose dependent"}, {"measurement": "dose dependence of expression of the VDR", "setting": "HL-1 cells [2]; listed as Vitamin D 3", "result": "dose dependent induction of expression of VDR"}]}]}
